Reference: article PMC11643494, “Structure–Activity Relationship Studies in a Series of 2-Aryloxy-N-(pyrimidin-5-yl)acetamide Inhibitors of SLACK Potassium Channels” (Molecules, 2024)

Biological target: T1, WT human SLACK (Homo sapiens, UniProt Q5JUK3)
T1 construct: host or cells: CHO-K1
T1 sequence (Q5JUK3 1-1235 isoform Q5JUK3-3): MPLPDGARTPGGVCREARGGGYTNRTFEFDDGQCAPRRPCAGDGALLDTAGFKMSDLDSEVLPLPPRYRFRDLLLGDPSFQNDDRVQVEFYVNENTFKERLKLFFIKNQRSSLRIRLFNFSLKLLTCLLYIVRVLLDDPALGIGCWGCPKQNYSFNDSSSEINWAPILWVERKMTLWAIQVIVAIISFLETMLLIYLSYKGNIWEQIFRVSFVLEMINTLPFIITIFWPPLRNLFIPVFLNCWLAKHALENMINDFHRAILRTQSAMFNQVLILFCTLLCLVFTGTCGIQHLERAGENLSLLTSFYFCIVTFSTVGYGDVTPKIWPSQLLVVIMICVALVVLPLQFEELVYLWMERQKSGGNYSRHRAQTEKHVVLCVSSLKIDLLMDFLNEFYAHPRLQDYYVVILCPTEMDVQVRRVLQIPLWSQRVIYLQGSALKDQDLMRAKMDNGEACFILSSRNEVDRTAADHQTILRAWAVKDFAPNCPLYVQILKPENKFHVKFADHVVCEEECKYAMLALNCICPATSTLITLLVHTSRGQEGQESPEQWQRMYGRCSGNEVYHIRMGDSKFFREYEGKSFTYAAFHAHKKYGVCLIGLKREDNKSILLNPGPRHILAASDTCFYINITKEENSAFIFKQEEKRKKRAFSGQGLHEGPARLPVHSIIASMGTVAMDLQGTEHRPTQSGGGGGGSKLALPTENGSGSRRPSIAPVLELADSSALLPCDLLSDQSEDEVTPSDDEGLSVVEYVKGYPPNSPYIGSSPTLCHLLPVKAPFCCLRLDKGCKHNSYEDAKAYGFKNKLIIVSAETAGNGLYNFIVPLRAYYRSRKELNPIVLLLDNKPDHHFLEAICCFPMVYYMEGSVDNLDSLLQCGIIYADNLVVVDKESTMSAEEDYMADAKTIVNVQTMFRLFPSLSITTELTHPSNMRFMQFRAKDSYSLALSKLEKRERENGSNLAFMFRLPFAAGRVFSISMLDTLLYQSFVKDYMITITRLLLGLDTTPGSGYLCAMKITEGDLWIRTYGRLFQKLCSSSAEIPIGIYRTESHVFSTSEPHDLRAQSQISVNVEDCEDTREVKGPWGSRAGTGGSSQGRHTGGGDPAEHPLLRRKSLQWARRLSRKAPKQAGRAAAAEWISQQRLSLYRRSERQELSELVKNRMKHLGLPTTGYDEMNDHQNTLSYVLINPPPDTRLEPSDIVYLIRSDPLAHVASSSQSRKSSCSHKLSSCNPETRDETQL
Assay: Whole-cell automated patch clamp (APC) in CHO-K1 cells stably expressing WT human SLACK
Format: cell-based
Settings: for IC50: APC, CHO-K1 cells stably expressing WT human SLACK, averages (n ≥ 3); for SLACK Imax: maximum inhibition at 30 µM test compound standardized to VU0606170 (set at 100%), WT human SLACK
Experimental: Using concentrations ranging from 0.125 to 30 µM in half-log steps, a concentration–response relationship was generated for each new analog using our APC assay in CHO-K1 cells stably expressing WT SLACK. A minimum of three cells, i.e., replicates, were collected per concentration for each analog.
Automated patch clamp recording was performed with a SyncroPatch 768 PE system (Nanion, Munich, Germany) as previously described. Whole-cell recordings were performed at room temperature. Cells were harvested by first washing with PBS without Mg^2+ or Ca^2+ (Gibco, Billings, MT, USA) to remove cell culture medium, followed by dissociation with TryPLE (Gibco, Billings, MT, USA). Cells were then resuspended and diluted to 200,000 cells/mL in external solution. External solution contained 105 mM NaCl, 4 mM KCl, 1 mM MgCl2, 5 mM CaCl2, 10 mM HEPES, 40 mM N-Methyl-D-glucamine chloride, titrated to pH 7.4 with NaOH and osmolarity of 300 mOsm/kg; internal solution contained 70 mM NaCl, 70 mM KF, 10 mM KCl, 5 mM EGTA, 5mM HEPES, titrated to a pH 7.2 with KOH and osmolarity of 295 mOsm/kg.
The APC protocol was set as following: Cells were held at […] −80 mV for 100 ms, then a ramp protocol was performed from −100 mV to 80 mV at 0.4 mV/ms, hold the cell at −80 mV for another 100 ms, then steps were performed at −20 mV, 0 mV, +20 mV, +40 mV, and +60 mV for 100 ms of each step. Whole-cell currents were measured at 0 mV and normalized to current after external buffer addition.

SMILES | IC50 | Fold improvement in potency relative to 10 (WT SLACK APC IC50) | SLACK Imax
CC(C)(Oc1ccc(Cl)cc1)C(=O)Nc1cnc(Oc2c(F)cccc2F)nc1 [Analog 40] | 520 nM | ~3 fold | 98%
CN(c1ccc(C#N)cc1)c1ncc(NC(=O)C(C)(C)Oc2ccc(Cl)cc2)cn1 [Analog 66] | 910 nM | – | 95%
